Reference: patent publication US9164105B2, “Pancreatic cancer biomarker using the characteristics of pancreatic cancer stem cells, and use thereof” (INDUSTRY-ACADEMIC COOPERATION FOUNDATION, YONSEI UNIVERSITY, priority 2012, dated 2015)

Tests used:
Assay type in all cases: cell-based, human
[1] = system: Hpac-spheres; test: Inhibition of sphere formation by stem cell signaling inhibitors; conditions: inhibitor added into sphere culture medium, observed after 7 days
Protocol: (§1) For sphere formation, pancreatic cancer cell lines were plated 1000 cell/mL in serum-free DMEM/F12 supplemented with EGF (10 ng/mL, R&D Systems Inc., Minneapolis, Minn.), bFGF ([…], R&D Systems Inc.), 1 ITS (insulin transferring selenium, Gibco) and 0.5% FBS on Corning Costar ultra-low attached 6-well culture dishes (Corning Inc., Corning, N.Y., US), and cultured for 7-10 days. The adherent cells cultured with the same media by attaching on culture plates (Nalgene Nunc Int., Rochester, N.Y.) were used as a control group.
Well-known stem cell signaling inhibitors DAPT (Calbiochem, San Diego, Calif., USA), Cyclopamine-KAAD (Calbiochem, San Diego, Calif., USA), LiCl (Sigma-Aldrich, Inc., St. Louis, Mo.), ATRA (Sigma-Aldrich, Inc., St. Louis, Mo.), OV (Sigma-Aldrich, Inc., St. Louis, Mo.) were added added into sphere culture medium, and cultured. After 7 days, sphere formation was observed.

[2] = system: Hpac cell line; test: Clonogenic assay of GLRX3 knock-down cell line; conditions: soft agar, 3-4 weeks, vs control cell line
Protocol: (§2) For clonogenic assay, 0.6% agar in cell media was boiled, hardened on 24-well plate (lower layer media). The cells at density of 1000 cell/well and 0.3% agar-cell media (upper layer media) were mixed, and hardened on lower layer media. Once 0.3% upper layer media was hardened, 500 μL/well of media was added on the upper layer media. Adding the media every third day, the cells were cultured for 3-4 weeks. Afterward, the media on agar was removed, stained with crystal violet to count the number of colony.

[3] = system: Hpac cell line; test: Wound-healing assay of GLRX3 knock-down cell line; conditions: GLRX3 k/d cell line compared to the control
Protocol: (§3) Selection marker was puromycin ([…]).

[4] = system: GLRX3; test: GLRX3 mRNA and protein expression in GLRX3 knock-down cell line (PCR and western blot); conditions: Hpac cell line transfected with shRNA, puromycin-selected clones, vs control shRNA
Protocol: as §3

[5] = system: Hpac cell line; test: Doubling time assay (cell proliferation) of GLRX3 knock-down cell line; conditions: GLRX3 k/d cell line compared to the control, counted for 5 days
Protocol: as §3

[6] = system: Hpac cell line; test: Sphere culture of GLRX3 knock-down cell line; conditions: sphere-cultured for 7 days, vs control cell line
Protocol: as §1, §2

[7] = system: CFAPC-1 cells; test: Fluorescence-Activated Cell Sorting of CD24/CD44/ESA after GLRX3 siRNA transfection; conditions: 72 hours after transfection; decreased from 70.4% (control)
Protocol: To inhibit GLRX3, siRNA (invitrogen Stealth™ siRNA duplex oligoribonucleotides) to GLRX3 was used. Sense siRNA sequence was UGAGGGAGUUCUUUAGCUAACUCUG, and antisense siRNA sequence was CAGAGUUAGCUAAAGAACUCCCUCA. Med GC (invitrogen) was used as negative control siRNA. CFAPC-1 cells were transfected with GLRX3 or negative control siRNA using RNAiMAX (invtirogen, Carlsbad, Calif., US), and incubated for 72 hours. The cells were treated with accutase (Sigma-Aldrich, St. Louis, Mo.) to prepare suspensions with the same number of single cells. Afterward, the cells were stained with PE-CD24 (BD Biosciences PharMingen, San Diego, Calif.), APC-CD44 (BD Biosciences PharMingen, San Diego, Calif.) and FITC-ESA (BD Biosciences PharMingen, San Diego, Calif.). Fluorescence-Activated Cell Sorting was carried out using BD LSR II (BD Biosciences, Franklin Lakes, N.J.) and analyzed by BD FACSDiva software.

CC1=C(/C=C/C(C)=C/C=C/C(C)=C/C(=O)O)C(C)(C)CCC1 [ATRA]
ability to form sphere in Hpac-spheres [1]: completely inhibited or reduced

C[C@H](NC(=O)Cc1cc(F)cc(F)c1)C(=O)N[C@H](C(=O)OC(C)(C)C)c1ccccc1 [DAPT]
ability to form sphere in Hpac-spheres [1]: completely inhibited or reduced

CC1=C2C[C@H]3[C@@H](CC=C4CC(=O)CC[C@@]43C)[C@@H]2CC[C@]12O[C@@H]1C[C@H](C)CN(CCNC(=O)CCCCCNC(=O)CCc3ccccc3)[C@H]1[C@H]2C [KAAD, Cyclopamine-KAAD]
ability to form sphere in Hpac-spheres [1]: completely inhibited or reduced

[Cl-].[Li+] [LiCl]
ability to form sphere in Hpac-spheres [1]: completely inhibited or reduced

[Na+].[Na+].[Na+].[O]=[V]([O-])([O-])[O-] [OV]
ability to form sphere in Hpac-spheres [1]: completely inhibited or reduced

shRNA to GLRX3: shRNA plasmid to GLRX3, sequence GTGGAAATTCTTCACAAACAT (SEQ ID NO:4), used to establish the GLRX3 knock-down Hpac line (guide GTGGAAATTCTTCACAAACAT; listed as Homo sapiens)
colonies formed (viability and proliferation) [2]: fewer colonies
cell migration activity [3]: decreased
Expressions of mRNA and protein of GLRX3 [4]: significantly reduced
cell proliferation rate [5]: decreased
ability to form spheres [6]: not formed

siRNA to GLRX3: Stealth siRNA duplex to GLRX3; sense UGAGGGAGUUCUUUAGCUAACUCUG (SEQ ID NOs:2 and 3) (chain 1 UGAGGGAGUUCUUUAGCUAACUCUG; chain 2 CAGAGUUAGCUAAAGAACUCCCUCA; listed as RNA, chemistry not given here; listed as Homo sapiens)
fraction of CD24+/CD44+/ESA+ [7]: 29.3%
